What was measured:
[1] = tested on: Aer01 SpdE tandem PAS/dCache region (residues 37-287); test: Thermofluor (thermal shift) assay, Aer01 SpdE; type: binding, Aeromonas veronii; settings: 10 mM pure amino acid, replicate ΔTm data
Protocol: Thermofluor Assay. The periplasmic portion of SpdE was cloned, expressed and purified in E. coli. Thermofluor assays were performed using a Thermo Fisher Scientific StepOnePlus Real-time PCR instrument. Each 20 μL sample contained 0.1 mg/mL SpdE protein, 4× SYPRO Orange dye, 165 mM NaCl, 80 mM Tris pH 7.5 and 10 mM ligand (free amino acid dissolved in water). All samples were done in triplicate and repeated 2-3 times on different days. All reagents and steps were performed at 4° C. and placed in 96 well PCR plates. The PCR plate was slowly heated (˜0.03° C./sec) from 4° C. to 80° C. in the StepOnePlus instrument and fluorescent measurements were taken every 8.5 sec. The resultant thermal shift curves were analyzed to find the inflexion points, which correspond to the melting temperature (Tm) of the protein (with or without ligand). Inflexion points were determined in Microsoft Excel by calculating the half way point between the minimum fluorescence value prior to fluorescence increase and the maximum fluorescence value. The Tm difference between protein with and without ligand was calculated and plotted to determine the thermal stability shift as a proxy for ligand binding.
In order to identify SpdE ligands, a thermal shift assay was conducted using 96-well Biolog Phenotype MicroArray plates as a high-throughput approach to screen compounds for ligand candidates. Using heterologously expressed and purified tandem PAS/dCache region of the protein (residues 37-287), ˜200 compounds were screened for ones that conferred a significant shift in protein thermal stability (see Table 4). […] For each curve, the melting temperature (Tm) was determined (brown circles), which corresponds to the midpoint of protein unfolding. The ΔTm (difference between test Tm and water control Tm) was calculated for each amino acid condition.

[2] = tested on: SpdE diguanylate cyclase activity in Aer01; test: Intracellular cyclic di-GMP quantification; type: cell-based, Aeromonas veronii; settings: WT Aer01, 1 mM amino acid, ~4 hrs, versus no ligand
Protocol: Intracellular cyclic di-GMP quantification. […] Cultures were incubated, shaking, at 30° C. for 4 hours. Sample OD600 was measured and the entire volume pelleted. Sample pellets were resuspended in 300 μL ice cold extraction buffer (40/40/20 acetonitrile/methanol/water+0.1 N formic acid), iced for 30 min, then pelleted at maximum speed in tabletop microcentrifuge for 10 min. The supernatant was transferred to a new tube and stored at −80° until being vacuum concentrated until completely evaporated.
Dried samples were resuspended in 100 μL Ultra Performance liquid chromatography-grade water and centrifuged for two minutes at 18,000×g (Eppendorf® Centrifuge 5242R). The debris-free supernatants were moved to LCMS Certified Clear Glass 12×32 mm screw neck max recovery vials (Waters®). Ten microliters of each sample were analyzed using LC-MS/MS on a Quattro Premier XE mass spectrometer coupled with an Acquity Ultra Performance LC system (Waters®). Cyclic di-GMP was detected with electrospray ionization using multiple reaction monitoring in negative-ion mode at m/z 689.16→344.31. […]
In the case of SpdE, ligand binding to the PAS/Cache was hypothesized to regulate SpdE diguanylate cyclase activity, thereby altering intracellular levels of c-di-GMP. To test this, WT and ΔspdE Aer01 were incubated in the presence or absence of amino acid ligands for ˜4 hrs, then pelleted and lysed the cells to extract and quantify intracellular c-di-GMP.

[3] = tested on: Aer01; type: cell-based, Aeromonas veronii; settings: WT Aer01, 1 mM ligand versus WT without ligand, mean
Protocol: Exploration Assay. Overnight cultures (TSB) of Aer01 Strains were pelleted (1 mL), and resuspended in 1 ml sterile EM. […] The cultures were incubated, shaking, at 30° C. for 3 hours. An aliquot of each culture was passed through a 0.2 μM filter (Corning® Costar® Spin-X® centrifuge tube filters) to generate cell-free supernatant. To a sterile 96-well plate round-bottom plate, 80 μL of unfiltered culture was added to each well to include five replicates for each condition. To another sterile 96-well plate round-bottom plate, 80 μL of the cell-free supernatant was added to each well to replicate the layout of the culture plate. Using a Rainin Liquidator™ 96-channel benchtop pipettor, 5 μL of the cell-free supernatant was pulled up into 20 μL Rainin pipette tips. These tips then were lowered down into the wells of the culture plate so the tips were submerged to half the depth of the culture volume in the wells. This set-up was incubated at room temperature for 30 min, during which time the cells in the culture can swim up into the supernatant in the pipette tips. After incubation, the contents of the tips were ejected into the wells of a sterile 96-well plate (Corning, flat-bottom, #3595) to which 195 μL of sterile TSB medium was added to each well. This plate was immediately placed in a FLUOstar Omega microplate reader (BMG Labtech, Offenburg, Germany) and growth curves monitored by measuring absorbance (600 nm) every 10 min for 12-16 hrs, with 30° C. incubation and constant shaking. The growth curves were plotted and the times at which the absorbance passed 0.5 was determined for each plot. The time difference between a particular condition and a reference condition (as indicated in FIG. 5C) represents the “exploration response” of Aer01 in that condition.
An “exploration assay” was used to measure population-level motility. For this assay Aer01 was incubated in the presence/absence of amino acid ligand (1 mM) for˜4 hrs, then the culture was added to the wells of a 96-well plate and pipette tips filled with the cell-free supernatant of the same cultures was lowered into the wells (FIG. 13). During a 30 min incubation period the Aer01 cells in the wells swam up into the pipette tips. […] To quantify the number of cells in the pipette tips after the 30 min exploration time, the contents of the pipette tips were ejected into the wells of a 96-well plate containing rich media and growth curves were monitored. […] This time difference between conditions, “exploration response,” was calculated to compare across many strains and conditions (FIG. 12C).

[4] = tested on: Aer01; type: cell-based, Aeromonas veronii
Protocol: Live imaging and quantification of Aer01 motility. […] EM containing proline or valine (pH adjusted to 7.8 with HCl/NaOH) was added to the wells to generate the desired final concentrations of amino acid (0, 1 nM, 10 nM, 100 nM, 1 μM, or 1 mM) and cell densities of OD 0.1, each performed in triplicate. The tray was covered by parafilm and incubated at 30° C. for 5 hours. Cells were imaged between hour 5-6. Prior to imaging, bacterial samples were moved to a temperature-controlled box housing the microscope, heated to 30° C. 2 ul of bacteria from treatments were applied to a well slide (MP Biomedicals 10-well multitest slides #096041805), covered with a coverslip, and imaged immediately. Videos of bacteria were captured using a Nikon Eclipse Ti inverted microscope on the GFP channel using 20× magnification at 39 frames per second. Videos of treated bacteria were analyzed with particle tracking software (Parthasarathy, Nature Methods 9:724-236, 2012) using these settings: “objects” were identified using bpfilter 3, nsize 7, and gradobjsize 0. A standard threshold of 3.99-6 was applied, depending on the degree of background. Motile bacteria were defined as objects tracked over at least 1 s (39 frames) with a standard deviation in position of pixels/frame of at least 1.
To do this, Aer01 was incubated in medium+/−ligand (ranging between 0 and 1 mM) then wet-mounted and imaged on an inverted microscope.

[5] = tested on: Aer01; test: Biofilm assay (crystal violet); type: cell-based, Aeromonas veronii; settings: WT Aer01, 1 mM ligand, 48 hrs
Protocol: Biofilm Assay. […] To the wells of a sterile 96-well plate (Corning, flat-bottom, #3595), 150 μL of each resuspended culture was added, in triplicate. A blank control well was added for each condition using the appropriate uninoculated media. This plate was incubated at 30° C., stationary, for 48 hours. After incubation, the biofilms were quantified using a standard crystal violet biofilm staining procedure. […] Briefly, the supernatant was removed from each well, then the wells gently rinsed three times with 150 μL sterile EM. Then, 150 μL 0.1% crystal violet was added to each well and the plate was incubated at room temperature for 10 minutes, followed by five rinses with 150 μL sterile EM. To destain, 150 μL 95% ethanol was added to each well and the plate was incubated at room temperature for 10 minutes. Each well was mixed well and the contents transferred to a clean 96-well plate and the absorbance (570 nm) was read on a FLUOstar Omega microplate reader (BMG Labtech, Offenburg, Germany).

[6] = tested on: Aer01 colonization of larval zebrafish gut; test: Bacterial competitions in vivo (competitive index); settings: GF zebrafish, ligand supplemented into inoculum and flask medium (1 mM proline)
Protocol: Bacterial competitions in vivo. For in vivo bacterial competitions, strains (purified evolved isolates, or Aer01 genetic variants) were grown overnight in TSB from freezer stocks. 1 ml of the overnight cultures were pelleted (8,700 rcf, 2 min), then resuspended in 1 ml sterile EM. Competing strains were mixed, then added to flasks of 4 dpf GF (or CV fish) WT fish at ˜10^6 CFU/ml. For all competitions, sfGFP-tagged Aer01 was used as the “reference” strain. […] At 7 dpf, fish intestines were dissected as described above, and each intestine transferred into a 1.6 ml tube containing 500 μl sterile EM and ˜100 μl bullet beads, then bullet blended as described above. Homogenized samples were diluted appropriately in sterile EM, spread plated on TSA plates, incubated at 30° C. for 1-2 days, and the colonies counted. Strains were differentiated by fluorescence microscopy. Competitive index (CI) was calculated by dividing the strain ratio (test strain divided by reference strain) in the gut at the end of the competition by the strain ratio in the inoculum ((test/reference)gut/(test/reference)inoculum) (FIG. 1). The limit of detection is 5 CFU/gut; for samples were one strain was below the limit of detection, the abundance was set to 5 CFU in order to calculate a CI; this was the case for few of the samples.
To test whether WT motility, and therefore immigration into the host, could be increased with addition of ligands, competitions were performed as previously described, this time supplementing the inoculum and flask medium with SpdE ligand.

[7] = tested on: Aer01 immigration into GF zebrafish; test: Migration rate experiments; type: in vivo; settings: WT +/- valine
Protocol: Migration rate experiments. Strains were grown, shaking, overnight in TSB, at 30° C. Overnight cultures were pelleted and washed in sterile EM, then diluted to 1:100 in sterile EM, and incubated at room temperature for ˜2 hrs. If amino acid SpdE ligands were tested, amino acids were added to the prepared inoculum and fish flasks before the 2 hr incubation. GF zebrafish (5 or 6 dpf) inoculated with the cultures to yield ˜10^5 CFU/ml. The fish were then split into replicate flasks containing 10 fish and 10 ml inoculated flask EM. An EM sample was taken and plated immediately to quantify CFU/ml of the inoculating strain. […] After 24-48 hr incubation, colonies on plates were counted.
To more directly investigate differences in immigration rate, migration rate experiments were performed. Fish were mono-associated (inoculated with individual strains) via the EM, then 10 fish were dissected every 60 minutes, and the fraction of fish colonized at each time point was calculated (FIG. 3). […] This experiment assessed the ability of Aer01 variants to migrate into GF fish from the environment during initial colonization. […] After allowing 15 hrs for Aer01 to migrate from donor to recipient fish, the fish were dissected and determined the abundance of Aer01 in all fish within each flask (FIG. 6D).

CC(C)[C@H](N)C(=O)O [valine]
thermal shift (ΔTm) in words [1]: largest shifts | intracellular c-di-GMP [2]: significantly lower | exploration response [3]: 13.2 min | number of motile cells ([4]; WT Aer01, 1 μM and 1 mM ligand): striking increase | motility ([4]; WT Aer01, below 1 μM ligand): little increase | biofilm formation [5]: more robust biofilms in the absence of ligand | median CI (competitive index) of ΔspdE versus WT [6]: 7 | immigration rate of WT Aer01 into fish [7]: migrated into the fish faster
